In brackets after ≈: the same amount, converted by molar mass.
Key:
Assay type in all cases: functional
Candida albicans [1] = test: Antifungal activity against Candida albicans MTCC 183 after 24 hr by agar disk diffusion test; note: test concentration or dose not given here
Bacillus cereus [2] = test: Antibacterial activity against Bacillus cereus MTCC 619 after 24 hr; details: MTCC 619, 24 h
Proteus vulgaris [3] = test: Antibacterial activity against Proteus vulgaris MTCC 1771 after 24 hr by agar disk diffusion test; note: test concentration or dose not given here
Salmonella typhi [4] = test: Antibacterial activity against Salmonella enterica subsp. enterica serovar Typhi MTCC 733 after 24 hr; details: MTCC 733, 24 h
Escherichia coli [5] = test: Antibacterial activity against Escherichia coli MTCC 739 after 24 hr by agar disk diffusion test
Salmonella typhi [6] = test: Antibacterial activity against Salmonella enterica subsp. enterica serovar Typhi MTCC 733 after 24 hr by agar disk diffusion test
Proteus vulgaris [7] = test: Antibacterial activity against Proteus vulgaris MTCC 1771 after 24 hr; details: MTCC 1771, 24 h
Staphylococcus aureus [8] = test: Antibacterial activity against Staphylococcus aureus MTCC 96 after 24 hr by agar disk diffusion test
Pseudomonas aeruginosa [9] = test: Antibacterial activity against Pseudomonas aeruginosa MTCC 741
Shigella flexneri [10] = test: Antibacterial activity against Shigella flexneri after 24 hr
Aspergillus niger [11] = test: Antifungal activity against Aspergillus niger MTCC 282 after 48 hr; details: MTCC 282, 48 h
Shigella flexneri [12] = test: Antibacterial activity against Shigella flexneri after 24 hr by agar disk diffusion test; note: test concentration or dose not given here
Klebsiella pneumoniae [13] = test: Antibacterial activity against Klebsiella pneumoniae MTCC 109 after 24 hr; details: MTCC 109, 24 h
Aspergillus niger [14] = test: Antifungal activity against Aspergillus niger MTCC 282 after 24 hr by agar disk diffusion test; note: test concentration or dose not given here
Escherichia coli [15] = test: Antibacterial activity against Escherichia coli MTCC 739 after 24 hr; details: MTCC 739, 24 h
Candida albicans [16] = test: Antifungal activity against Candida albicans MTCC 183 after 48 hr; details: MTCC 183, 48 h
Pseudomonas aeruginosa [17] = test: Antibacterial activity against Pseudomonas aeruginosa MTCC 741 after 24 hr by agar disk diffusion test
Bacillus cereus [18] = test: Antibacterial activity against Bacillus cereus MTCC 619 after 24 hr by agar disk diffusion test; note: test concentration or dose not given here
Staphylococcus aureus [19] = test: Antibacterial activity against Staphylococcus aureus MTCC 96 after 24 hr; details: MTCC 96, 24 h
Klebsiella pneumoniae [20] = test: Antibacterial activity against Klebsiella pneumoniae MTCC 109 after 24 hr by agar disk diffusion test

Structure (SMILES) | inhibition zone (IZ) (Candida albicans [1]) | MIC (Bacillus cereus [2]) | inhibition zone (IZ) (Proteus vulgaris [3]) | MIC (Salmonella typhi [4]) | inhibition zone (IZ) (Escherichia coli [5]) | inhibition zone (IZ) (Salmonella typhi [6]) | MIC (Proteus vulgaris [7]) | inhibition zone (IZ) (Staphylococcus aureus [8]) | MIC (Pseudomonas aeruginosa [9]) | MIC (Shigella flexneri [10]) | MIC (Aspergillus niger [11]) | inhibition zone (IZ) (Shigella flexneri [12]) | MIC (Klebsiella pneumoniae [13]) | inhibition zone (IZ) (Aspergillus niger [14]) | MIC (Escherichia coli [15]) | MIC (Candida albicans [16]) | inhibition zone (IZ) (Pseudomonas aeruginosa [17]) | inhibition zone (IZ) (Bacillus cereus [18]) | MIC (Staphylococcus aureus [19]) | inhibition zone (IZ) (Klebsiella pneumoniae [20])
O=c1oc2ccccc2cc1-c1nnc(Sc2nc(Oc3cccc4cccnc34)nc(N3CCN(c4ccccn4)CC3)n2)o1 | 17 mm | 50 µg/mL (≈ 79.4 µM) | 14 mm | 100 µg/mL (≈ 159 µM) | 15 mm | 14 mm | 100 µg/mL (≈ 159 µM) | 21 mm | 100 µg/mL (≈ 159 µM) | 50 µg/mL (≈ 79.4 µM) | 100 µg/mL (≈ 159 µM) | 22 mm | 25 µg/mL (≈ 39.7 µM) | 14 mm | 100 µg/mL (≈ 159 µM) | 100 µg/mL (≈ 159 µM) | 18 mm | 21 mm | 50 µg/mL (≈ 79.4 µM) | 22 mm
O=c1oc2ccccc2cc1-c1nnc(Sc2nc(Oc3cccc4cccnc34)nc(N3CCN(C(c4ccccc4)c4ccccc4)CC3)n2)o1 | <10 mm | 100 µg/mL (≈ 139 µM) | <10 mm | 100 µg/mL (≈ 139 µM) | 13 mm | 12 mm | 100 µg/mL (≈ 139 µM) | 18 mm | 100 µg/mL (≈ 139 µM) | 100 µg/mL (≈ 139 µM) | 100 µg/mL (≈ 139 µM) | 14 mm | 100 µg/mL (≈ 139 µM) | 11 mm | 100 µg/mL (≈ 139 µM) | 100 µg/mL (≈ 139 µM) | <10 mm | 14 mm | 100 µg/mL (≈ 139 µM) | 14 mm
CC(C)N1CCN(c2nc(Oc3cccc4cccnc34)nc(Sc3nnc(-c4cc5ccccc5oc4=O)o3)n2)CC1 | 11 mm | 100 µg/mL (≈ 168 µM) | 15 mm | 50 µg/mL (≈ 84.1 µM) | 16 mm | 20 mm | 100 µg/mL (≈ 168 µM) | 19 mm | 25 µg/mL (≈ 42 µM) | 25 µg/mL (≈ 42 µM) | 100 µg/mL (≈ 168 µM) | 24 mm | 100 µg/mL (≈ 168 µM) | 12 mm | 100 µg/mL (≈ 168 µM) | 100 µg/mL (≈ 168 µM) | 21 mm | 16 mm | 100 µg/mL (≈ 168 µM) | 14 mm
O=c1oc2ccccc2cc1-c1nnc(Sc2nc(Oc3cccc4cccnc34)nc(N3CCN(c4ncccn4)CC3)n2)o1 | 17 mm | 25 µg/mL (≈ 39.6 µM) | 16 mm | 100 µg/mL (≈ 159 µM) | 19 mm | 18 mm | 100 µg/mL (≈ 159 µM) | 21 mm | 100 µg/mL (≈ 159 µM) | 50 µg/mL (≈ 79.3 µM) | 100 µg/mL (≈ 159 µM) | 22 mm | 25 µg/mL (≈ 39.6 µM) | 16 mm | 100 µg/mL (≈ 159 µM) | 100 µg/mL (≈ 159 µM) | 18 mm | 22 mm | 50 µg/mL (≈ 79.3 µM) | 22 mm
CN1CCN(c2nc(Oc3cccc4cccnc34)nc(Sc3nnc(-c4cc5ccccc5oc4=O)o3)n2)CC1 | 11 mm | 100 µg/mL (≈ 176 µM) | 11 mm | 100 µg/mL (≈ 176 µM) | 12 mm | 16 mm | 100 µg/mL (≈ 176 µM) | 13 mm | 100 µg/mL (≈ 176 µM) | 100 µg/mL (≈ 176 µM) | 100 µg/mL (≈ 176 µM) | 18 mm | 100 µg/mL (≈ 176 µM) | <10 mm | 100 µg/mL (≈ 176 µM) | 100 µg/mL (≈ 176 µM) | 19 mm | <10 mm | 100 µg/mL (≈ 176 µM) | 12 mm
COc1ccc(CN2CCN(c3nc(Oc4cccc5cccnc45)nc(Sc4nnc(-c5cc6ccccc6oc5=O)o4)n3)CC2)c(OC)c1OC | 22 mm | 12.5 µg/mL (≈ 17.1 µM) | 20 mm | 12.5 µg/mL (≈ 17.1 µM) | 19 mm | 24 mm | 100 µg/mL (≈ 136 µM) | 23 mm | 12.5 µg/mL (≈ 17.1 µM) | 25 µg/mL (≈ 34.1 µM) | 25 µg/mL (≈ 34.1 µM) | 23 mm | 100 µg/mL (≈ 136 µM) | 24 mm | 100 µg/mL (≈ 136 µM) | 50 µg/mL (≈ 68.2 µM) | 22 mm | 23 mm | 12.5 µg/mL (≈ 17.1 µM) | 18 mm
O=c1oc2ccccc2cc1-c1nnc(Sc2nc(Oc3cccc4cccnc34)nc(N3CCN(c4ccc(F)cc4)CC3)n2)o1 | 22 mm | 50 µg/mL (≈ 77.3 µM) | 21 mm | 100 µg/mL (≈ 155 µM) | 23 mm | 19 mm | 50 µg/mL (≈ 77.3 µM) | 22 mm | 50 µg/mL (≈ 77.3 µM) | 100 µg/mL (≈ 155 µM) | 100 µg/mL (≈ 155 µM) | 17 mm | 100 µg/mL (≈ 155 µM) | 21 mm | 25 µg/mL (≈ 38.7 µM) | 50 µg/mL (≈ 77.3 µM) | 21 mm | 21 mm | 25 µg/mL (≈ 38.7 µM) | 16 mm
O=c1oc2ccccc2cc1-c1nnc(Sc2nc(Oc3cccc4cccnc34)nc(N3CCN(c4cccc(Cl)c4Cl)CC3)n2)o1 | 21 mm | 25 µg/mL (≈ 35.8 µM) | 17 mm | 100 µg/mL (≈ 143 µM) | 24 mm | 19 mm | 100 µg/mL (≈ 143 µM) | 21 mm | 50 µg/mL (≈ 71.7 µM) | 100 µg/mL (≈ 143 µM) | 25 µg/mL (≈ 35.8 µM) | 21 mm | 25 µg/mL (≈ 35.8 µM) | 23 mm | 25 µg/mL (≈ 35.8 µM) | 50 µg/mL (≈ 71.7 µM) | 20 mm | 22 mm | 50 µg/mL (≈ 71.7 µM) | 21 mm
O=c1oc2ccccc2cc1-c1nnc(Sc2nc(Oc3cccc4cccnc34)nc(N3CCN(C(c4ccccc4)c4ccc(Cl)cc4)CC3)n2)o1 (stereo not given) | 22 mm | 50 µg/mL (≈ 66.4 µM) | 20 mm | 100 µg/mL (≈ 133 µM) | 25 mm | 19 mm | 100 µg/mL (≈ 133 µM) | 20 mm | 100 µg/mL (≈ 133 µM) | 100 µg/mL (≈ 133 µM) | 50 µg/mL (≈ 66.4 µM) | 16 mm | 100 µg/mL (≈ 133 µM) | 22 mm | 25 µg/mL (≈ 33.2 µM) | 50 µg/mL (≈ 66.4 µM) | 16 mm | 21 mm | 50 µg/mL (≈ 66.4 µM) | 19 mm
O=c1oc2ccccc2cc1-c1nnc(Sc2nc(Oc3cccc4cccnc34)nc(N3CCN(c4ccccc4F)CC3)n2)o1 | 19 mm | 50 µg/mL (≈ 77.3 µM) | 22 mm | 50 µg/mL (≈ 77.3 µM) | 23 mm | 20 mm | 25 µg/mL (≈ 38.7 µM) | 19 mm | 100 µg/mL (≈ 155 µM) | 100 µg/mL (≈ 155 µM) | 100 µg/mL (≈ 155 µM) | 19 mm | 50 µg/mL (≈ 77.3 µM) | 21 mm | 25 µg/mL (≈ 38.7 µM) | 100 µg/mL (≈ 155 µM) | 19 mm | 20 mm | 100 µg/mL (≈ 155 µM) | 20 mm
O=c1oc2ccccc2cc1-c1nnc(Sc2nc(Oc3cccc4cccnc34)nc(N3CCN(Cc4ccccc4)CC3)n2)o1 | <10 mm | 100 µg/mL (≈ 156 µM) | <10 mm | 100 µg/mL (≈ 156 µM) | 16 mm | <10 mm | 100 µg/mL (≈ 156 µM) | 13 mm | 100 µg/mL (≈ 156 µM) | 100 µg/mL (≈ 156 µM) | 100 µg/mL (≈ 156 µM) | 13 mm | 100 µg/mL (≈ 156 µM) | <10 mm | 100 µg/mL (≈ 156 µM) | 100 µg/mL (≈ 156 µM) | 19 mm | 17 mm | 100 µg/mL (≈ 156 µM) | <10 mm
O=c1oc2ccccc2cc1-c1nnc(Sc2nc(Oc3cccc4cccnc34)nc(N3CCN(c4cccc(C(F)(F)F)c4)CC3)n2)o1 | 21 mm | 12.5 µg/mL (≈ 17.9 µM) | 23 mm | 50 µg/mL (≈ 71.8 µM) | 22 mm | 21 mm | 25 µg/mL (≈ 35.9 µM) | 24 mm | 25 µg/mL (≈ 35.9 µM) | 100 µg/mL (≈ 144 µM) | 25 µg/mL (≈ 35.9 µM) | 21 mm | 25 µg/mL (≈ 35.9 µM) | 24 mm | 50 µg/mL (≈ 71.8 µM) | 50 µg/mL (≈ 71.8 µM) | 21 mm | 24 mm | 12.5 µg/mL (≈ 17.9 µM) | 21 mm

— ChEMBL document CHEMBL3045723, “Synthesis of novel 3-(5-sulfanyl-1,3,4-oxadiazol-2-yl)-2H-chromen-2-one condensed s-triazinyl piperazines and piperidines as antimicrobial agents” (2012)
